Assay results from patent US10105357B2, “Indication of antibiotic drugs for preparation of cancer inhibition pharmaceutical composition” (LAUNX BIOMEDICAL CO., LTD., priority 2014, dated 2018).
Where a name gives a salt, the structure may show the parent alone. Read-outs that look alike come from different tables or passages of the source.

Key:
[1] = tested on: TSGH-8301 (Urinary Bladder Carcinoma); assay: Cell viability analysis, bladder cancer TSGH-8301; type: cell-based, human; conditions: Homo sapiens, 72 h
[2] = tested on: HCT116 (p53+) (Colorectal Carcinoma); assay: cells; conditions: Homo sapiens, HCT-116, 72 h, read-out: cell viability (survival rate), HCT116
[3] = TSGH-8301, repeated experiment, read-out: The results of antibiotic drug inhibiting cancer cell lines (cell viability analysis), TSGH-8301
[4] = drug 10 μM, 72 hours, WST-1, OD450 nm, read-out: cell viability (survival rate), TSGH
[5] = read-out: The results of antibiotic drug inhibiting cancer cell lines (cell viability analysis), TSGH-8301, TSGH-8301, repeated experiment
[6] = read-out: cell viability (survival rate), TSGH, drug 10 μM, 72 hours, WST-1, OD450 nm

| SMILES | viability at 10 µM [1, 3] | viability at 10 µM [1, 4] | viability at 10 µM [2] | viability at 10 µM [1, 5] | viability at 10 µM [1, 6] |
| --- | --- | --- | --- | --- | --- |
| CCCCCCCCCCCCCCCC[N+](C)(C)CCN(Cc1ccc(OC)cc1)c1ncccn1 [Thonzonium Bromide] | 16.7% | 18.4% | 32.9% |  |  |
| CC(C)/N=c1\cc2n(-c3ccc(Cl)cc3)c3ccccc3nc-2cc1Nc1ccc(Cl)cc1 [Clofazimine] | 111% | 51.7% |  |  |  |
| CN(C)CCC=C1c2ccccc2CCc2ccccc21 [Amitriptyline HCl] | 157% | 133% |  |  |  |
| Cc1ncc([N+](=O)[O-])n1CCO [Metronidazole (Flagyl), Metronidazole] |  |  |  | 92.4% | 62% |
| CN(C)[C@@H]1C(O)=C(C(N)=O)C(=O)[C@@]2(O)C(O)=C3C(=O)c4c(O)ccc(Cl)c4[C@@](C)(O)[C@H]3C[C@@H]12 [Chlortetracycline HCl] |  |  |  | 152% | 50.4% |
| CCc1cc2c(cc1CC)CC(NC[C@H](O)c1ccc(O)c3[nH]c(=O)ccc13)C2 [Indacaterol Maleate] |  | 56% |  |  |  |
| CN(C)[C@@H]1C(O)=C(C(N)=O)C(=O)[C@@]2(O)C(O)=C3C(=O)c4c(O)cccc4[C@@](C)(O)[C@H]3C[C@@H]12 [Tetracycline HCl] |  |  |  | 103% | 34.1% |
| CC[C@@H]([C@H](C)O)n1ncn(-c2ccc(N3CCN(c4ccc(OC[C@@H]5CO[C@@](Cn6cncn6)(c6ccc(F)cc6F)C5)cc4)CC3)cc2)c1=O [Posaconazole] | 81.9% | 51.3% |  |  |  |
| Clc1ccc(C(Cn2ccnc2)OCc2ccsc2Cl)c(Cl)c1 (stereo not drawn) [Tioconazole] |  |  |  | 105% | 68.1% |
| Cc1ccc2c(Cl)cc(Cl)c(O)c2n1 [Chlorquinaldol] | 87% | 70.5% |  |  |  |
| COc1cc(NC(C)CCCN)c2ncccc2c1 (stereo not drawn) [Primaquine Diphosphate] |  |  | 69.5% | 51.5% | 55.5% |
| CC(C)(C)CC(C)(C)c1ccc(O)c(Cc2ccc(Cl)cc2Cl)c1 [Clofoctol] | 109% | 72.3% | 61% |  |  |
| COc1c(C)c2c(c(O)c1C/C=C(\C)CCC(=O)O)C(=O)OC2 [Mycophenolic (Mycophenolate), Mycophenolic] | 57.5% | 40.3% |  |  |  |
| CC(NC(C)(C)C)C(=O)c1cccc(Cl)c1 (stereo not drawn) [Amfebutamone (Bupropion), Amfebutamone] |  |  |  | 116% | 44.9% |
| CC(C)(C)C(=O)OCOP(=O)(COCCn1cnc2c(N)ncnc21)OCOC(=O)C(C)(C)C [Adefovir Dipivoxil (Preveon, Hepsera), Adefovir Dipivoxil] |  |  |  | 70% | 47% |
| Clc1ccc(COC(Cn2ccnc2)c2ccc(Cl)cc2Cl)c(Cl)c1 (stereo not drawn) [Miconazole nitrate] |  |  |  | 102% | 41.8% |
| NC(=O)N/N=C/c1ccc([N+](=O)[O-])o1 [Nitrofurazone (Nitrofural), Nitrofurazone] | 83.9% | 32.5% |  |  |  |
